Experimental data reported in publication PMC6538996, “Evaluating the In Vivo Specificity of [^18F]UCB-H for the SV2A Protein, Compared with SV2B and SV2C in Rats Using microPET” (Molecules, 2019).

Tests used:
human SV2A = target: T1, human SV2A (Homo sapiens, UniProt Q7L0J3); test: In vitro radioligand binding assay, hSV2A (HEK293 membranes, 3H-UCB30889); settings: 37 °C, mean n = 3 to 10, read-out: pIC50 SV2A (converted)
T1 construct: expressed in transfected cells; crude membranes
Protocol: Reagents and reference compounds used were of analytical grade and obtained from various commercial sources. All cell culture reagents were obtained from Invitrogen (Merelbeke, Belgium). […] Test and reference compounds were dissolved in 100% DMSO or H2O to give 1 or 10 mM stock solution. The final DMSO concentration in assays was 0.1% unless otherwise stated. Cell lines generated at UCB Biopharma were human embryonic kidney (HEK) 293 cells expressing human SV2A, SV2B or SV2C proteins. Cells were cultured in Dulbecco’s Modified Eagle medium. The culture medium was supplemented with foetal bovine serum (FBS, 10%), 2 mM L-glutamine, 50 to 100 U/mL penicillin, 50 to 100 µg/mL streptomycin, and 200 µg/mL hygromycin B. Cells were grown at 37 °C with 95% air. Confluent cells were detached by 10 min incubation at 37 °C in phosphate buffered saline (PBS) containing 0.02% EDTA. Culture flasks were washed with 15 mL of ice-cold PBS. The cell suspension was centrifuged at 1500× g for 10 min at 4 °C. The pellet was homogenized in 15 mM Tris-HCl buffer (pH 7.5) containing 2 mM MgCl2, 0.3 mM EDTA, and 1 mM EGTA (buffer A) using a glass/teflon homogenizer. The crude homogenate was subjected to a freeze and thaw cycle in liquid nitrogen and DNAse (1 µL/mL) was then added. […] The radioactivity trapped on the filters was counted by liquid scintillation in a β-counter. […]

[1] = target: T2, [^18F]UCB-H binding in rat brain (Rattus norvegicus, UniProt Q02563); test: microPET blocking assay of [18F]UCB-H (Vt, Logan plot, PBIF) after pre-treatment with competitors; type: in vivo, Sprague Dawley rats; settings: mean ± SEM, n = 5, SV2AL 10 mg/kg, SV2BL and SV2CL 3 mg/kg i.p.
T2 construct: from tissue; host or cells: brain of living Sprague Dawley rats (microPET)
Protocol: The competitors were prepared daily in a vehicle composed of distilled water containing 1% methyl cellulose (viscosity: 15 cP, Sigma-Aldrich, Overijse, Belgium) and 5% dimethyl sulphoxide (DMSO, Sigma-Aldrich, Belgium). The concentrations differed depending on the product specifications and their respective pharmacokinetics, provided by UCB Pharma s.a. The dosing used was 10 mg/kg for SV2AL, 3 mg/kg for SV2BL, and 3 mg/kg for SV2CL. All solutions were administered through the intraperitoneal (i.p.) route in a total volume of 1 mL per kg of body weight. The animals used as a control group (vehicle) received an equal volume of vehicle through the same route of administration.
The animals (n = 5 per group) were anesthetized using 4% isoflurane in air at a flow rate of 1 L/min during induction and 1.5% to 2% isoflurane in air at 0.6 L/min during maintenance. Respiration rate and rectal temperature were continuously measured using a physiological monitoring system (Minerve, France). The temperature was maintained at 37 ± 0.5 °C using an air warming system. […]
PMOD software (Version 3.6, PMOD Technologies, Zurich, Switzerland) was used to process the imaging data. […] Finally, the inverse normalization parameters were calculated and applied to the PMOD rat brain atlas to bring it in the individual PET space. […]

SV2A = settings: cited from earlier work

T1 sequence (Q7L0J3 whole entry): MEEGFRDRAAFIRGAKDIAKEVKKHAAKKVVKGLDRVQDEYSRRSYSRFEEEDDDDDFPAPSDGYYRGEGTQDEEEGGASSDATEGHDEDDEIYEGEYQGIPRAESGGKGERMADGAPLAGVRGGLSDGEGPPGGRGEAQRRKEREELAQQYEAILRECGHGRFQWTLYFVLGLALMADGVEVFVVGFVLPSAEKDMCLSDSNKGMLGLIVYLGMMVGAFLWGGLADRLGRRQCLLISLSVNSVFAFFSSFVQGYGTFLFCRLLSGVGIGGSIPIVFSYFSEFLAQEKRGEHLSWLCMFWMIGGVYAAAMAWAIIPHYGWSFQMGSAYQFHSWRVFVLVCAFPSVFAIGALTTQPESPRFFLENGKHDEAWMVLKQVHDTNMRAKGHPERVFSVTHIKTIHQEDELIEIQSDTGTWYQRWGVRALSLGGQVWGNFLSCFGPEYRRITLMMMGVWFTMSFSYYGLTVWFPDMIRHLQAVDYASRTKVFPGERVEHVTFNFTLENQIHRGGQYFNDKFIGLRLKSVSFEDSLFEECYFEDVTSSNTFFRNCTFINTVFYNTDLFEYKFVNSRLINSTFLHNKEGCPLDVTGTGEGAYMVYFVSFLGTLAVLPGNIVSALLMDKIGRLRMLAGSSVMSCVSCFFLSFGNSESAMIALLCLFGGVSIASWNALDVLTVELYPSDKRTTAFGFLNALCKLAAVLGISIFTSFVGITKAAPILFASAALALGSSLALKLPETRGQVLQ
T2 sequence (Q02563 whole entry): as the sequence (Q7L0J3 whole entry) above, with D53E, S62A, T71A, E144D, A154T, G440S, S482A, I572V, M634L counted along it

CC[C@@H](C(N)=O)N1CCCC1=O [SV2AL, levetiracetam]
IC50 (human SV2A): 6.31 µM
mean Vt of [18F]UCB-H in the whole brain of the pre-treated group [1]: 6.0 ± 0.3

[11CH3]n1cncc1CN1C[C@@H](c2cc(F)cc(F)c2)CC1=O [[^11C]UCB-A]
pIC50 (affinity measured in vitro) (SV2A): 7.9
